Data: US20040259913A1, “Diamide invertebrate pest control agents” (priority 2002, published 2004)

System: beet armyworm (Spodoptera exigua)
Assay: Test C: control of beet armyworm on corn (maize) plant, foliar spray
Type: in vivo
Settings: sprayed at 50 ppm; corn (maize) plant pre-infested with 10-15 1-day-old larvae; visually rated as in Test A
Method: Test compounds were formulated using a solution containing 10% acetone, 90% water and 300 ppm X-77® Spreader Lo-Foam Formula non-ionic surfactant containing alkylarylpolyoxyethylene, free fatty acids, glycols and isopropanol (Loveland Industries, Inc.), unless otherwise indicated. The formulated compounds were applied in 1 mL of liquid through a SUJ2 atomizer nozzle with ⅛ JJ custom body (Spraying Systems Co,) positioned 1.27 cm (0.5 inches) above the top of each test unit. All experimental compounds in this screen were sprayed at 250 ppm and replicated three times. After spraying of the formulated test compound, each test unit was allowed to dry for 1 hour and then a black, screened cap was placed on top. The test units were held for 6 days in a growth chamber at 25° C. and 70% relative humidity. Plant feeding damage was then visually assessed. For evaluating control of beet armyworm (Spodoptera exigua) the test unit consisted of a small open container with a 4-5-day-old corn (maize) plant inside. This was pre-infested with 10-15 1-day-old larvae on a piece of insect diet by use of a core sampler as described for Test A. Test compounds were formulated and sprayed at 50 ppm as described for Test A. The applications were replicated three times. After spraying, the test units were maintained in a growth chamber and then visually rated as described for Test A.

## CC1=C(NC(=O)c2cc(C(F)(F)F)nn2-c2ncccc2Cl)C(C(=O)NC(C)C)CS1 (stereo not shown) [Compound 1, 1-(3-Chloro-2-pyridinyl)-N-[4,5-dihydro-2-methyl-4-[[(1-methylethyl)amino]carbonyl]-3-thienyl]-3-(trifluoromethyl)-1H-pyrazole-5-carboxamide]
  feeding damage (very good levels of plant protection): ≤ 20%
